Measured values from PubChem BioAssay AID434956 (The Scripps Research Institute Molecular Screening Center, 2010).
The source made the active and inactive calls. How the calls were made is not given here.

Test system: IEC-6 cytotoxicity, ATP luminescence
Assay: cytotoxicity in IEC-6 intestinal cells, late-stage follow-up, cytotoxicity control for KLF5 inhibitor project, cell-based, luminescence, dose response, round 1 (AID 434956)

Row | Compound | IC50
1 | CC(=O)c1sc(NC(=O)c2ccc3ncsc3c2)nc1C | > 39.8 µM (inactive)
2 | O=C(Nc1cc2nn(-c3ccccc3)nc2cc1Cl)C1CC1 | > 39.8 µM (inactive)
3 | CC(C)(C)c1ccc(-c2coc(CCC(=O)Nc3ccccn3)n2)cc1 | > 39.8 µM (inactive)
4 | CC(C)(C)c1ccc(-c2noc(CCC(=O)Nc3ccncc3)n2)cc1 | 25.6 µM (inactive)
5 | CC(C)(C)c1ccc(-c2noc(CCC(=O)Nc3ccc(N4CCOCC4)nc3)n2)cc1 | > 39.8 µM (inactive)
6 | CC(C)(C)C(=O)Nc1ccc2nn(-c3ccccc3)nc2c1 | > 39.8 µM (inactive)
7 | CN(C)C(=O)c1ccc2nc(Nc3nc4ccc(F)cc4s3)sc2c1 | 15.7 µM (inactive)
8 | O=C(Nc1cc2nn(-c3ccccc3)nc2cc1Cl)C1COc2ccccc2C1 (configuration not stated) | > 39.8 µM (inactive)
9 | CC1(C)CC(=O)c2sc(NC(=O)c3ccc4ncsc4c3)nc2C1 | > 39.8 µM (inactive)
10 | CC(=O)Nc1ccc2nc(Nc3nc4ccc(F)cc4s3)sc2c1 | 14.7 µM (inactive)
11 | Cc1cccc(NC(=O)CCc2nc(-c3ccc(C(C)(C)C)cc3)no2)c1 | > 39.8 µM (inactive)
12 | CC(C)(C)c1ccc(-c2noc(CCCC(=O)Nc3ccccc3Cl)n2)cc1 | > 39.8 µM (inactive)
13 | CC(=O)c1sc(NC(=O)c2ccc3ncsc3c2)nc1-c1ccccc1 | > 39.8 µM (inactive)
14 | Cc1ccc(-n2nc3cc(Cl)c(NC(=O)c4cccnc4)cc3n2)cc1 | 17.8 µM (inactive)
15 | CC(NC(=O)c1ccccc1)c1nc(-c2ccc(C(C)(C)C)cc2)no1 (configuration not stated) | 41.4 µM (inactive)
16 | CS(=O)(=O)c1ccc2nc(Nc3nc4ccc(F)cc4s3)sc2c1 | 19.1 µM (inactive)
17 | CC(C)(C)c1ccc(-c2noc(CCC(=O)Nc3ccccn3)n2)cc1 | > 39.8 µM (inactive)
18 | CC(C)C(=O)Nc1ccc2nn(-c3ccc(Cl)cc3)nc2c1 | > 39.8 µM (inactive)
19 | CC(C)c1ccc2nc(Nc3nc4ccc(F)cc4s3)sc2c1 | > 39.8 µM (inactive)

Row | Compound | IC50
20 | CC(C)(C)c1ccc(-c2noc(CCc3nc4ccccc4[nH]3)n2)cc1 | 31.8 µM (inactive)
21 | Cc1ccc(OCC(=O)Nc2ccc3nn(-c4cccc(C(F)(F)F)c4)nc3c2)cc1C | > 39.8 µM (inactive)
22 | CCOc1ccc2nc(Nc3nc4ccc(F)cc4s3)sc2c1 | > 39.8 µM (inactive)
23 | COc1ccc(-n2nc3ccc(NC(=O)C4CCN(S(=O)(=O)c5ccc(Cl)cc5)CC4)cc3n2)cc1 | 31.2 µM (inactive)
24 | COc1ccc(-n2nc3ccc(NC(=O)C(C)(C)C)cc3n2)cc1 | > 39.8 µM (inactive)
25 | O=C(COc1ccccc1)Nc1ccc2nn(-c3cccc(Cl)c3)nc2c1 | > 39.8 µM (inactive)
26 | CC(C)(C)c1ccc(-c2noc(CCC(=O)NCc3ccccc3)n2)cc1 | 24.1 µM (inactive)
27 | Cc1nc(NC(=O)c2ccc3ncsc3c2)sc1C(=O)N(C)C | > 39.8 µM (inactive)
28 | CCNC(=O)c1ccc2nc(Nc3nc4ccc(F)cc4s3)sc2c1 | 14.7 µM (inactive)
29 | COc1ccc(-n2nc3cc(C)c(NC(=O)C(C)C)cc3n2)cc1 | > 39.8 µM (inactive)
30 | CC(C)(C)c1ccc(-c2noc(CCC(=O)Nc3ccccc3)n2)cc1 | > 39.8 µM (inactive)
31 | CCNC(=O)c1sc(NC(=O)c2ccc3ncsc3c2)nc1C | > 39.8 µM (inactive)
32 | COc1ccc2nc(Nc3nc4ccc(F)cc4s3)sc2c1 | > 39.8 µM (inactive)
33 | Cc1ccc(-n2nc3ccc(NC(=O)COc4ccc(C)c(C)c4)cc3n2)cc1 | > 39.8 µM (inactive)
34 | CCOc1ccc(NC(=O)CCc2nc(-c3ccc(C(C)(C)C)cc3)no2)cc1 | > 39.8 µM (inactive)
35 | Nc1cc2nn(-c3ccccc3)nc2cc1Cl | > 39.8 µM (inactive)
36 | CC(C)(C)C(=O)Nc1ccc2nn(-c3ccc(F)cc3)nc2c1 | > 39.8 µM (inactive)
37 | O=C(Cc1ccccc1)Nc1cc2nn(-c3ccccc3)nc2cc1Cl | > 39.8 µM (inactive)
